Where two headings read alike, the source gives them in different places. Some results are limits rather than exact numbers.

The subject of data set [1] is L. infantum axenic amastigotes. The data set can be described thus: Antileishmanial activity on L. infantum axenic amastigotes (luciferase luminescence). The data set is classed as cell-based, Leishmania infantum. To be noted: for S.I. (Selectivity Index) = CC50/IC50: CC50 J774A.1 / IC50 L. infantum axenic amastigotes; for IC50 / activity against L. infantum (in words): axenic amastigotes; for IC50: 48 h incubation, mean (standard deviation), three independent experiments. Here is the method: (§1) Selected compounds were evaluated for their leishmanicidal ability as previously described, through examining their activity on L. infantum axenic amastigotes, and the results are expressed in Table 2 as IC50 values. In parallel, evaluation of the cytotoxicity of test compounds was performed by MTT assay using the J774A.1 macrophage cell line. Results are presented as CC50 values.
4.2. Bioassay Procedures: Antileishmanial Activity on L. infantum Axenic Amastigotes
L. infantum promastigotes (MHOM/MA/67/ITMAP-263, CNR Leishmania, Montpellier, France, expressing luciferase activity) were cultivated in RPMI 1640 medium supplemented with 10% foetal calf serum (FCS), 2 mM L-glutamine and antibiotics (100 U/mL penicillin and 100 μg/mL streptomycin) and harvested in the logarithmic phase of growth by centrifugation at 900× g for 10 min. The supernatant was carefully removed and replaced by the same volume of RPMI 1640 complete medium at pH 5.4, and then incubated for 24 h at 24 °C. The acidified promastigotes were then incubated for 24 h at 37 °C in a ventilated flask to transform promastigotes into axenic amastigotes. The effects of the tested compounds on the growth of L. infantum axenic amastigotes were assessed as follows. L. infantum amastigotes were incubated at a density of 2 × 10^6 parasites/mL in sterile 96-well plates with various concentrations of compounds dissolved in DMSO (final concentration less than 0.5% v/v), in duplicate. Appropriate controls, DMSO and amphotericin, were added to each set of experiments. After a 48 h incubation period at 37 °C, each plate-well was then microscopically examined to detect any precipitate formation. To estimate the luciferase activity of axenic amastigotes, 80 μL of each well were transferred to white 96-well plates, Steady Glow® reagent (Promega, Charbonnières-les-Bains, France) was added according to the manufacturer’s instructions, and plates were incubated for 2 min. The luminescence was measured using a Microbeta Luminescence Counter (Perkin Elmer, Villebon-sur-Yvette, France). The inhibitory concentration 50% (IC50) was defined as the concentration of drug required to inhibit by 50% the metabolic activity of L. infantum amastigotes compared to control. IC50 values were calculated by non-linear regression analysis on dose response curves, using the TableCurve 2D V5 software (Systat Software, San Jose, CA, USA). IC50 values represent the mean of three independent experiments.

Data set [2] can be described thus: Cytotoxicity by MTT assay on J774A.1 macrophage cell line. It is filed as cell-based, mouse. To be noted: mouse, J774A.1 macrophage cells; MTT, 72 h incubation; mean (standard deviation). Here is the method: as §1
(§2) 4.3. Cytotoxicity Evaluation on J774A.1 Cells
(§3) Evaluation of the cytotoxicity of test compounds was performed by MTT assay using the J774A.1 cell line (mouse macrophage cell line, Sigma-Aldrich). Briefly, cells (5 × 10^4 cells/mL) in 100 µL of complete medium, [DMEM High glucose supplemented with 10% fetal calf serum (FCS), 2 mM L-glutamine and antibiotics (100 U/mL penicillin and 100 µg/mL streptomycin)] were seeded into each well of 96-well plates and incubated at 37 °C in a humidified 5% CO2 with 95% air atmosphere. After a 24 h incubation, 100 µL of medium with various product concentrations and appropriate controls were added and the plates were incubated for 72 h at 37 °C. Each plate-well was then examined under the microscope to detect possible precipitate formation before the medium was aspirated from the wells. 100 µL of MTT solution (0.5 mg/mL in RPMI) was then added to each well. Cells were incubated for 2 h at 37 °C. After this time, the MTT solution was removed and DMSO (100 µL) was added to dissolve the resulting formazan crystals. Plates were shaken vigorously (300 rpm) for 5 min. The absorbance was measured at 570 nm with a microplate spectrophotometer. DMSO was used as blank and doxorubicin (Sigma Aldrich, Saint-Quentin-Fallavier, France) as positive control. CC50 values were calculated by non-linear regression analysis on dose–response curves, using the TableCurve 2D V5 software.

Another data set deals with L. pifanoi. Set-up: method as in PMID 32734890. To be noted: topical application, co-formulated with saponins; cited from earlier work.
A further data set concerns L. braziliensis. Set-up: method as in PMID 32734890. To be noted: topical application, co-formulated with saponins; cited from earlier work.
Another data set concerns L. (V) panamensis. To be noted: read-out: EC50 against L. (V) panamensis, cited from earlier work.
Details of data set [3]: method as in PMID 29286346. To be noted: cited from earlier work.
Data set [4] relates to axenic amastigotes of L. infantum. Set-up: method as in PMID 32258470. To be noted: cited from earlier work.
Data set [5] has as its system intracellular amastigotes of L. infantum. Also noted: method as in PMID 32258470. To be noted: cited from earlier work.
In another data set the test system is J774A.1 cells. The data set can be described thus: Cytotoxicity by MTT assay on J774A.1 macrophage cell line. It is filed as cell-based, mouse. Here is the method:
as §1, §2, §3

Data set [6] relates to amastigotes of Trypanosoma cruzi. Set-up: method as in PMID 29935351. To be noted: cited from earlier work.
Data set [7] has as its system amastigotes of L. infantum. Set-up: method as in PMID 29935351. To be noted: cited from earlier work.

Regarding `CCCCNCc1ccc2c(c1)C(=O)CC(C)(C)S2` [Compound 12a, 6-((Butylamino)methyl)-2,2-dimethylthiochroman-4-one], the “S.I. (Selectivity Index) = CC50/IC50” value in [1] was determined as 1.25. The compound further returned an IC50 in data set [1] (Leishmania infantum) of 26.5 µM. In data set [2], the half-maximal cytotoxic concentration (CC50) at 72 h was determined as 33.2 µM.
For the compound `O=C(N/N=C1\CCSc2ccccc21)c1ccccc1` [Compound 8], the “effect on parasite survival and infectivity (in words)” value in the data set on L. pifanoi and in the data set on L. braziliensis was “very effective” each time.
With `CCCCCCCC(=O)NCc1ccc2c(c1)C(=O)CC(C)(C)S2` [Compound 11d, N-((2,2-Dimethyl-4-oxothiochroman-6-yl)methyl)octanamide], the “S.I. (Selectivity Index) = CC50/IC50” value in data set [1] is given as 2.68. In data set [1] (Leishmania infantum), this compound had a half-maximal inhibitory concentration (IC50) of 51.3 µM. For the same compound, the half-maximal cytotoxic concentration (CC50) at 72 h in data set [2] worked out at 137 µM.
Take `CCCCCCNCc1ccc2c(c1)C(=O)CC(C)(C)S2` [Compound 12b, 6-((Hexylamino)methyl)-2,2-dimethylthiochroman-4-one]: the “S.I. (Selectivity Index) = CC50/IC50” value in data set [1] amounted to 1.12. This compound registered an IC50 in data set [1] (Leishmania infantum) of 23.1 µM. Moreover, in [2], the half-maximal cytotoxic concentration (CC50) at 72 h was 25.8 µM.
As to `NC(=S)N/N=C1\CC(c2ccccc2)Sc2ccccc21` (stereo not shown) [Compound 7], the concentration giving a half-maximal response (EC50) with L. (V) panamensis (acyl hydrazone derivatives) is 5.1 µM. In addition, the “cytotoxicity (in words)” value in [3] is “low cytotoxicity”.
With `CCCCCCCCNCc1ccc2c(c1)C(=O)CC(C)(C)S2` [Compound 12c, 2,2-Dimethyl-6-((octylamino)methyl)thiochroman-4-one], the “S.I. (Selectivity Index) = CC50/IC50” value in [1] came out at 1.16. For the same compound, the IC50 in data set [1] (Leishmania infantum) came out at 19.5 µM. The compound further yielded a half-maximal cytotoxic concentration (CC50) at 72 h in data set [2] of 22.6 µM.
Turning to `CC1(C)CC(=O)c2cc(COC(=O)/C=C/C=C/c3ccc4c(c3)OCO4)ccc2S1` [Compound 10b, (2,2-Dimethyl-4-oxothiochroman-6-yl)methyl (2E,4E)-5-(benzo[d][1,3]dioxol-5-yl)penta-2,4-dienoate], the “S.I. (Selectivity Index) = CC50/IC50” value in [1] came to 0.25. In addition, in data set [1] (Leishmania infantum), the half-inhibitory concentration (IC50) was determined as 91.3 µM. In data set [2], this compound showed a half-maximal cytotoxic concentration (CC50) at 72 h of 22.5 µM.
As to `CCCCCCCCNCc1ccc2c(c1)C(=O)CC(C)(C)O2` [Compound 3], the half-inhibitory concentration (IC50) in data set [4] is 25.3 µM; in data set [5], 24.6 µM.
As for “(2,2-Dimethyl-4-oxothiochroman-6-yl)methyl-6-phenylhex-5-enoate [Compound 11b]”, the 50% inhibitory concentration (IC50) in [1] came out at 19.9 µM. Moreover, the “cytotoxicity to macrophages (in words)” value with J774A.1 cells (J774A.1, compared with activity against axenic amastigotes) was “comparably cytotoxic to macrophages”. This compound yielded a half-maximal cytotoxic concentration (CC50) in the data set with J774A.1 cells (MTT, 72 h incubation, mean (standard deviation)) of 14 µM.
On to `CCCCCCCCNCc1ccc2c(c1)C(=O)CC(C)(C)S2(=O)=O` [Compound 14, 2,2-Dimethyl-6-((octylamino)methyl)thiochroman-4-one 1,1-dioxide], for which the “S.I. (Selectivity Index) = CC50/IC50” value in [1] was 1.27. Moreover, in data set [1] (Leishmania infantum), the half-inhibitory concentration (IC50) was found to be 33.8 µM. The compound further came in with a cytotoxic concentration (CC50) at 72 h in data set [2] of 42.8 µM.
`C[C@@H]1[C@H](O)[C@@H](C)/C=C/C=C/C=C/C=C/C=C/C=C/C=C/[C@H](O[C@@H]2O[C@H](C)[C@@H](O)[C@H](N)[C@@H]2O)C[C@@H]2O[C@](O)(C[C@@H](O)C[C@@H](O)[C@H](O)CC[C@@H](O)C[C@@H](O)CC(=O)O[C@H]1C)C[C@H](O)[C@H]2C(=O)O` [Amphotericin B, reference compound] registered an IC50 in data set [1] (Leishmania infantum) of 0.072 µM.
As for `CC1(C)CC(=O)c2cc(CNC(=O)/C=C/C=C/c3ccc4c(c3)OCO4)ccc2S1` [Compound 11c, (2E,4E)-5-(Benzo[d][1,3]dioxol-5-yl)-N-((2,2-dimethyl-4-oxothiochroman-6-yl)methyl)penta-2,4-dienamide], the concentration for half-maximal inhibition (IC50) in data set [1] (Leishmania infantum) was more than 119 µM. Moreover, in data set [1], the “activity against L. infantum (in words)” value is recorded as “devoid of activity”. The compound further displayed a 50% cytotoxic concentration (CC50) at 72 h in [2] of more than 119 µM.
Take `CC1(C)CC(=O)c2cc(CNC(=O)CCCCCCCCBr)ccc2S1` [Compound 11e, 9-Bromo-N-((2,2-dimethyl-4-oxothiochroman-6-yl)methyl)nonanamide]: in data set [1], the “S.I. (Selectivity Index) = CC50/IC50” value worked out at 8.06 and the “activity against L. infantum (in words)” value was “notable anti-leishmanial activity”. Moreover, inhibition in [1] (Leishmania infantum) was half-maximal at 7.2 µM (IC50). Further, the CC50 at 72 h in data set [2] was 58 µM.
For `CC1(C)CC(=O)c2cc(CNC(=O)C/C=C/c3ccccc3)ccc2S1` [Compound 11a, (E)-N-((2,2-Dimethyl-4-oxothiochroman-6-yl)methyl)-4-phenylbut-3-enamide], in that order: 3.01, “notable anti-leishmanial activity”, 10.5 µM and 31.6 µM.
In turn, `COc1cccc2c1C(=O)c1c(O)c3c(c(O)c1C2=O)C[C@@](O)(C(=O)CO)C[C@@H]3O[C@H]1C[C@H](N)[C@H](O)[C@H](C)O1` [Doxorubicin, reference compound] registered a CC50 at 72 h in [2] of 0.047 µM.
`CC1(C)CC(=O)c2cc(COC(=O)C/C=C/c3ccccc3)ccc2S1` [Compound 10a, (2,2-Dimethyl-4-oxothiochroman-6-yl)methyl (E)-4-phenylbut-3-enoate]: the “S.I. (Selectivity Index) = CC50/IC50” value in data set [1] is reported as more than 3.97. The 50% inhibitory concentration (IC50) in data set [1] (Leishmania infantum) came to 34.4 µM. This compound also showed a 50% cytotoxic concentration (CC50) at 72 h in data set [2] of more than 136 µM.
On to `CCCCCCCCNCc1ccc(OC)cc1` [Compound 5], for which the IC50 was 5.8 µM in data set [6] and 1.3 µM in data set [7].
Regarding `CCCCCCCCNCc1ccc2c(c1)C(=O)CC(C)(C)[S+]2[O-]` (stereo not shown) [Compound 13, 2,2-Dimethyl-6-((octylamino)methyl)thiochroman-4-one 1-oxide], the “S.I. (Selectivity Index) = CC50/IC50” value in [1] was 1.22. The compound also gave an IC50 in data set [1] (Leishmania infantum) of 33.4 µM. In [2], the midpoint of cytotoxicity, the CC50 at 72 h, lay at 40.9 µM.
Regarding `O=C1C=C(c2ccc(C(F)(F)F)cc2)S(=O)(=O)c2ccc(F)cc21` [Compound 6], in the data set with L. (V) panamensis, the EC50 was less than 10 µM.
Regarding `CCCCCCCCCCNCc1ccc2c(c1)C(=O)CC(C)(C)S2` [Compound 12d, 2,2-Dimethyl-6-((decylamino)methyl)thiochroman-4-one], the “S.I. (Selectivity Index) = CC50/IC50” value in data set [1] stood at 1.86. Further, in [1] (Leishmania infantum), half-maximal inhibition (IC50) required 12.4 µM. This compound also returned a 50% cytotoxic concentration (CC50) at 72 h in data set [2] of 23.1 µM.

The values above are taken from paper PMC8069510, “Synthesis and Evaluation of Novel 2,2-Dimethylthiochromanones as Anti-Leishmanial Agents” (Molecules, 2021).
